This note sets out measurements from ChEMBL document CHEMBL3526121, “Pharmacokinetics, bioavailability, tissue distribution, excretion, and metabolite identification of methoxyflavones in Kaempferia parviflora extract in rats” (Drug Metab Dispos, 2012).

Assay type in all cases: ADME, organism-based
What all share (parameters): dose 750 mg/kg, route oral
Details in all cases: in vivo; call rule not given here

The nature of series [1]: Drug excretion in Wistar rat urine at 750 mg/kg, po after 12 hrs by HPLC-UV analysis.
Series [2] is described as follows: Drug excretion in Wistar rat feces at 750 mg/kg, po after 12 hrs by HPLC-UV analysis.
Series [3] in a line: Drug metabolism in Wistar rat urine/feces treated with 750 mg/kg, po of 3,5,7,4'-tetramethoxyflavone by LC-MS and LC-MS/MS analysis.
A short description of series [4]: Drug metabolism in Wistar rat urine/feces treated with 750 mg/kg, po of 3,5,7,3',4'-pentamethoxyflavone by LC-MS and LC-MS/MS analysis.
Series [5] in a line: Drug metabolism in Wistar rat urine/feces treated with 750 mg/kg, po of 5,7-dimethoxyflavone by LC-MS and LC-MS/MS analysis.
Series [6] in a line: Drug metabolism in Wistar rat urine/feces treated with 750 mg/kg, po of 5,7,4'-trimethoxyflavone by LC-MS and LC-MS/MS analysis.

With `COc1ccc(-c2oc3cc(OC)cc(O)c3c(=O)c2OC)cc1`, the Drug excretion result in series [1] and in series [2] was “Active” each time.
As for `COc1cc(O)c2c(=O)c(O)c(-c3ccc(O)cc3)oc2c1` [RHAMNOCITRIN], the Drug metabolism entry in series [3] is “metabolite_detected”.
Take `COc1cc(OC)c2c(=O)c(OC)c(-c3ccc(OC)c(O)c3)oc2c1`: the Drug metabolism entry in series [4] is on record as “metabolite_detected”.
For `O=c1cc(-c2ccccc2)oc2cc(O)cc(O)c12` [CHRYSIN], the Drug metabolism entry in series [5] is given as “metabolite_detected”.
Regarding `COc1cc(OS(=O)(=O)O)c2c(=O)cc(-c3ccccc3)oc2c1`, the Drug metabolism result in series [5] is on record as “metabolite_detected”.
Regarding `COc1ccc(-c2cc(=O)c3c(OS(=O)(=O)O)cc(OC)cc3o2)cc1`, in series [6], the Drug metabolism result is given as “metabolite_detected”.
For the compound `COc1ccc(-c2oc3cc(OC)cc(O)c3c(=O)c2O)cc1`, the Drug metabolism entry in series [3] is “metabolite_detected”.
With `COc1cc(O)c2c(=O)cc(-c3ccc(O)cc3)oc2c1` [GENKWANIN], in series [6], the Drug metabolism entry is given as “metabolite_detected”.
In the case of `COc1cc(O)c2c(=O)c(OC)c(-c3ccc(OC)c(OC)c3)oc2c1` [RETUSIN], the Drug excretion result in series [1] and in series [2] was “Active” throughout.
